From patent publication US20160137630A1, “INDUCTION OF GATA2 BY HDAC1 AND HDAC2 INHIBITORS” (ACETYLON PHARMACEUTICALS, INC., priority 2014, published 2016)
Like-named read-outs stand apart in the source and are kept apart here.

How the values were obtained:
Gata2 = Gata2 shRNA knockdown with Compound 001 treatment; type: cell-based, human
Protocol: In FIG. 13A-D, expanded hematopoietic progenitors were infected with lentivirus carrying short hairpin RNAs (shRNA) directed against the Gata2 gene (shG2-1, shG2-2) or a non-targeting control shRNA (shCtrl). Transduced cells were selected by puromycin treatment. […] RNA was isolated at the indicated time points and the level of Gata2 mRNA was determined by quantitative real time PCR (QRT-PCR). In FIG. 7A, K562 cells were infected with lentivirus as described above. […] RNA was isolated at indicated time point and the level of Gata2 mRNA was determined by quantitative real time PCR (QRT-PCR). In FIG. 7B, protein levels at Day 3 were determined by Western blot using antibodies against Gata2 and beta-actin as a loading control. […] Data was first normalized to beta-actin control and then expressed relative to vehicle treated cells.
Since Gata2 levels decline during erythroid differentiation (FIGS. 1B and 1C), knockdown experiments were performed entirely in CS1 expansion media, which supports hematopoietic progenitors, and maintained Gata2 mRNA at a constant level in shCtrl cells following infection (FIG. 13B). Gata2 mRNA was reduced by 85% or 50% in shG2-1 or shG2-2 cells, respectively, while Gata2 protein was reduced by 50% by each hairpin, relative to shCtrl cells (FIG. 13B and FIG. 13D).

[1] = tested on: human bone marrow mononuclear cells; test: colony formation assays; conditions: 1 μM
Gata2 regulatory regions = test: Gata2 ChIP-seq at the Gata2 locus; type: cell-based; conditions: −1.8 kb region
From the text: As above, differentiation profiles of compound treated cells were highly similar to control cells (FIG. 23A). It was observed that Gata2 occupancy at the Gata2 locus is tightly correlated between K562 and primary erythroid progenitors. In both cases, binding was limited to the +9.5, −1.8, −2.8, and −3.9 kb regulatory regions (data not shown).

HDAC1 = HDAC1 (Homo sapiens, UniProt Q13547); test: in vitro biochemical HDAC inhibition assay
HDAC1, sequence (Q13547 whole entry): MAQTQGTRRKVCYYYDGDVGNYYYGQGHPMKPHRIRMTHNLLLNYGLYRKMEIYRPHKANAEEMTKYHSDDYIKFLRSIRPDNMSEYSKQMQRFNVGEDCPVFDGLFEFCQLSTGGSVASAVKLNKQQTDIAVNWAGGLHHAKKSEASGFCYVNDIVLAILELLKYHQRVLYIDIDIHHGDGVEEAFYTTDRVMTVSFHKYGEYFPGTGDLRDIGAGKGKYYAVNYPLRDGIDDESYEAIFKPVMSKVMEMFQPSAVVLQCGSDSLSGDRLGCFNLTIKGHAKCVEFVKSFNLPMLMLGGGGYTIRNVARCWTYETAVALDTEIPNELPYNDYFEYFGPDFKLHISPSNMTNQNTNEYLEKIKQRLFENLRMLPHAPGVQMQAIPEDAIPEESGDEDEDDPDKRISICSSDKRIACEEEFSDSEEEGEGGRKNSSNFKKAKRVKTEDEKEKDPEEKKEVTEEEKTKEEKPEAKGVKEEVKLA

SMILES: Nc1ccc(-c2cccs2)cc1NC(=O)c1ccc2nc(N3CCNCC3)ccc2c1 [Compound 001, N-(2-amino-5-(thiophen-2-yl)phenyl)-2-(piperazin-1-yl)quinoline-6-carboxamide]
- Gata2 mRNA induction (Gata2; 1 uM, cells expressing shCtrl): 1.4 fold
- Gata2 protein induction (Gata2; 1 uM, cells expressing shCtrl): 5 fold
- reduction of magnitude of HbG mRNA induction relative to shCtrl cells (Gata2; shG2-1 and shG2-2 cells): 25%
- number of CFU-E colonies [1]: no effect
- number of CFU-GM colonies [1]: no effect
- number of CFU-MK colonies [1]: significantly suppressed
- size and number of BFU-E colonies [1]: no effect
- maximum increase in Gata2 binding (peak height) (Gata2 regulatory regions): 3 fold
- IC50 (HDAC1; Table 2, read-out: IC50 HDAC1): 4 nM
- IC50 (HDAC1; pre-incubation time of 24 hours, FIG. 9A, 17B, read-out: IC50 against HDAC1): 7 nM
